Patent US20220009914A1, “Analogs of Nitrofuran Antibiotics to Combat Resistance” (The Trustees of Indiana University, priority 2020, published 2022)
Like-named read-outs stand apart in the source and are kept apart here.

Assays:
[1] = test system: Enterobacter cloacae strain CDC 442-68 (ATCC #13047); test: bacterial proliferation assay, E. cloacae; format: cell-based; settings: ATCC13047, read-out: Bacterial Proliferation EC50 E. cloacae
Procedure: (§1) All compounds were evaluated for inhibiting the proliferation of E. coli and each of the ESKAPE bacteria. Results presented represent the averages of EC50 values obtained from at least four replicates. Evaluating compounds for inhibition of bacterial cell proliferation.
(§2) Growth Media: E. coli were grown with LB medium and all ESKAPE bacteria were grown in Brain Heart Infusion (BHI) medium (Becton, Dickinson and Company), with all liquid cultures supplemented with 25 mg/L Ca^2+ and 12.5 mg/L Mg^2+ to mimic physiological free concentrations of these cations. A 10 mg/mL Ca^2+ stock solution was prepared by dissolving 1.84 g of CaCl2.2H2O in 50 mL of deionized water, and a 10 mg/mL Mg^2+ stock solution was prepared by dissolving 4.18 g of MgCl2.6H2O in 50 mL deionized water—filter sterilized using 0.2 μm cellulose-acetate filters. 2.5 mL of the sterile 10 mg/mL Ca^2+ stock and 1.25 mL of the sterile 10 mg/mL Mg^2+ stock solutions were added per 1 L of autoclaved LB or BHI media to obtain 25 mg/L Ca^2+ and 12.5 mg/L Mg^2+ ions, respectively.
(§3) General Assay Protocol: Stock bacterial cultures were streaked onto LB or BHI agar plates and grown overnight at 37° C. Fresh aliquots of cation supplemented media were inoculated with single bacterial colonies and the cultures were grown overnight at 37° C. with shaking (240 rpm). The following morning, cultures were diluted 10-fold into fresh media and grown at 37° C. until bacteria had reached mid-log phase growth (OD600˜0.4-0.6). The cultures were then diluted into fresh media to achieve final OD600 readings of 0.017. Aliquots of these diluted cultures (30 μL) were added to clear, flat-bottom 384-well polystyrene plates that were previously stamped with 0.5 μL of test compounds in 20 μL of media (yielding initial OD600=0.01 bacterial cultures). All compounds were tested in dose-response with concentration ranges during the proliferation assays from 100 μM to 46 nM (3-fold dilution series). A second set of baseline control plates were prepared analogously, but without any bacteria added, to correct for possible compound absorbance and/or precipitation. […] Plates were then read at 600 nm using a Molecular Devices SpectraMax Plus384 microplate reader. […] Results presented represent the averages of EC50 values obtained from at least four replicates.
(§4) Evaluating analogs for inhibiting the growth of E. coli and the ESKAPE bacteria. Analogs were initially tested for antibacterial efficacy against representative strains of antibiotic-sensitive E. coli and the ESKAPE bacteria. To determine compound efficacy, bacterial proliferation assays were carried out in liquid media culture supplemented with physiological concentrations of free calcium and magnesium cations. For these assays, bacterial cultures (OD600=0.01) were exposed to test compounds in 8-point, 3-fold dilution series (100 μM to 46 nM concentration range), in 384-well plates. After addition of compounds to cultures, the plates were sealed with Breathe-Easy gas permeable membranes and allowed to grow to mid-log phase (OD600˜0.4-0.6), whereupon final OD600 readings were taken to assess for bacterial growth and inhibition.

E. coli GroEL/ES = molecular target: T1, E. coli GroEL/ES (Escherichia coli, UniProt P0A6F5); test: GroEL/ES-mediated dRho refolding assay; format: biochemical
T1 construct: made in house; host or cells: GroEL in NEB 5-alpha E. coli; GroES in E. coli BL21 (DE3)
Procedure: Evaluating compounds for inhibition in the GroEL/ES-mediated dRho refolding assay. Reagent preparation: For this assay, five primary reagent stocks were prepared: 1) GroEL/ES-dRho binary complex stock; 2) ATP initiation stock; 3) thiocyanate enzymatic assay stock; 4) formaldehyde quench stock; 5) ferric nitrate reporter stock. Denatured rhodanese (dRho) was prepared by 3-fold dilution of rhodanese (Roche product #R^1756, diluted to 10 mg/mL with H2O) with denaturant buffer (12 M Urea, 50 mM Tris-HCl, pH 7.4, and 10 mM DTT). Rhodanese was completely denatured by incubating at room temperature for >45 min. The binary complex solution was prepared by slowly adding the dRho stock to a stirring stock of concentrated GroEL in modified folding buffer (50 mM Tris-HCl, pH 7.4, 50 mM KCl, 10 mM MgCl2, 5 mM Na2S2O3, and 1 mM DTT). The solution was centrifuged at 16,000×g for 5 minutes, and the supernatant was collected and added to a solution of GroES in modified folding buffer to give final protein concentrations of 100 nM GroEL, 120 nM GroES, and 80 nM dRho. The binary complex stock was prepared immediately prior to use. For the ATP initiation stock, ATP solid was diluted into modified folding buffer to a final concentration of 2.0 mM. The thiocyanate enzymatic assay stock was prepared to contain 70 mM KH2PO4, 80 mM KCN, and 80 mM Na2S2O3 in water. The formaldehyde quench solution contained 30% formaldehyde in water.
Assay Protocol: First, 10 μL aliquots of the GroEL/ES-dRho complex stock were dispensed into clear, flat-bottom 384-well polystyrene plates. […] After incubating for 40 minutes at 37° C. for the refolding cycle, 30 μL of the thiocyanate enzymatic assay stock was added and incubated for 60 min at room temperature for the refolded rhodanese enzymatic reporter reaction. The reporter reaction was quenched by adding 10 μL of the formaldehyde quench stock, and then 40 μL of the ferric nitrate reporter stock was added to quantify the amount of thiocyanate produced during the enzymatic reporter reaction, which is proportional to the amount of dRho refolded by GroEL/ES. After incubating at room temperature for 15 min, the absorbance by Fe(SCN)3 was measured at 460 nm using a Molecular Devices SpectraMax Plus384 microplate reader. A second set of baseline control plates were prepared analogously, but without GroEL/ES-dRho protein binary solution, to correct for possible interference from compound absorbance or turbidity. […] Results presented represent the averages of IC50 values obtained from at least four replicates.
Evaluating compounds for inhibition in the GroEL/ES-mediated dRho refolding assay. All compounds were evaluated for inhibiting E. coli GroEL/ES-mediated refolding of the denatured Rho reporter enzyme as per our previously reported procedure. Results presented represent the averages of IC50 values obtained from at least four replicates.

[2] = test system: Enterococcus faecium strain NCTC 7171 (ATCC #19434); test: bacterial proliferation assay, E. faecium; format: cell-based; settings: read-out: Bacterial Proliferation EC50 E. faecium
Procedure: as §1, §2, §3, §4

[3] = test system: Staphylococcus aureus strain Seattle 1945 (ATCC #25923); test: bacterial proliferation assay, S. aureus; format: cell-based; settings: read-out: Bacterial Proliferation EC50 S. aureus
Procedure: as §1, §2, §3, §4

[4] = Staphylococcus aureus, ATCC25923
[5] = read-out: GroEL/ES-dRho Refolding IC50

T1 sequence (P0A6F5 2-548): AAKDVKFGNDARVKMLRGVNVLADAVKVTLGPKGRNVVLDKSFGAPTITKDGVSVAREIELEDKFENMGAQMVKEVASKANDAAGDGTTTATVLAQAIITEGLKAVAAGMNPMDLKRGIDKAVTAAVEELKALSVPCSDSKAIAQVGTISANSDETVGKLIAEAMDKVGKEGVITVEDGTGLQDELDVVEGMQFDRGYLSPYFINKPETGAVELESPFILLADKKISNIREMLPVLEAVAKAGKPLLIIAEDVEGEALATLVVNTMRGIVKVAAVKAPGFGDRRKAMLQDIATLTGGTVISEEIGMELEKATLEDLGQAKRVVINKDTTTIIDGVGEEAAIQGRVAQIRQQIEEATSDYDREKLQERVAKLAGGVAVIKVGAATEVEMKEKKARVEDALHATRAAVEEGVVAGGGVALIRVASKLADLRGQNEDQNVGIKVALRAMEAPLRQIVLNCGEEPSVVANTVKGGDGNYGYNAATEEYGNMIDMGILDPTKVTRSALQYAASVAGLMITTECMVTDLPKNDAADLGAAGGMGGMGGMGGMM

| SMILES | EC50 [1] | IC50 (E. coli GroEL/ES) | EC50 [2] | EC50 [3, 4] | IC50 (E. coli GroEL/ES; [5]) | EC50 [3] |
| --- | --- | --- | --- | --- | --- | --- |
| O=C(N/N=C/c1ccc(O)c2ncccc12)c1ccccc1 [Compound 5, N′-((8-hydroxyquinolin-5-yl)methylene)benzohydrazide] | 80 µM | 176 µM | > 100 µM | 69 µM | – | – |
| O=Cc1ccc(O)c2ncccc12 [Compound 40, reference compound] | 24 µM | – | 7.3 µM | 19 µM | 30 µM | – |
| O=C(N/N=C/c1ccc([N+](=O)[O-])o1)c1cccs1 [Compound 16, N′-((5-nitrofuran-2-yl)methylene)thiophene-2-carbohydrazide] | 40 µM | – | 24 µM | 7.1 µM | 222 µM | – |
| O=C(N/N=C/c1ccc(O)cc1)c1ccccc1 [Compound 36, N′-(4-hydroxybenzylidene)benzohydrazide] | > 100 µM | > 250 µM | > 100 µM | > 100 µM | – | – |
| O=C(N/N=C/c1ccc(O)c2ncccc12)c1ccncc1 [Compound 6, N′-((8-hydroxyquinolin-5-yl)methylene)isonicotinohydrazide] | > 100 µM | > 250 µM | > 100 µM | > 100 µM | – | – |
| COc1ccc(C(=O)N/N=C/c2ccc(O)cc2)cc1 [Compound 35, N′-(4-hydroxybenzylidene)-4-methoxybenzohydrazide] | > 100 µM | > 250 µM | > 100 µM | > 100 µM | – | – |
| O=C(N/N=C/c1cccc2ncccc12)c1ccccc1 [Compound 32, N′-(quinolin-5-ylmethylene)benzohydrazide] | > 100 µM | > 250 µM | > 100 µM | > 100 µM | – | – |
| O=Cc1ccc([N+](=O)[O-])o1 [Compound 41, reference compound] | 13 µM | 31 µM | 20 µM | 5.8 µM | – | – |
| O=C(N/N=C/c1ccccc1)c1ccccc1 [Compound 38, N′-benzylidenebenzohydrazide] | > 100 µM | > 250 µM | > 100 µM | > 100 µM | – | – |
| COc1ccc(C(=O)N/N=C/c2ccco2)cc1 [Compound 39, N′-(furan-2-ylmethylene)-4-methoxybenzohydrazide] | > 100 µM | > 250 µM | > 100 µM | > 100 µM | – | – |
| CCN(CC)S(=O)(=O)c1cccc(C(=O)N/N=C/c2ccc([N+](=O)[O-])o2)c1 [Compound 25, N,N-diethyl-3-(2-((5-nitrofuran-2-yl)methylene)hydrazine-1-carbonyl)benzenesulfonamide] | > 100 µM | 100 µM | > 100 µM | 9.6 µM | – | – |
| O=C(N/N=C/c1ccc(O)c2ncccc12)c1ccccc1Oc1ccccc1 [Compound 10, N′-((8-hydroxyquinolin-5-yl)methylene)-2-phenoxybenzohydrazide] | > 100 µM | 4.5 µM | > 100 µM | > 100 µM | – | – |
| CCOc1ccc(S(=O)(=O)Nc2ccc(C(=O)N/N=C/c3ccc(O)c4ncccc34)cc2)cc1 [Compound 15, 4-ethoxy-N-(4-(2-((8-hydroxyquinolin-5-yl)methylene)hydrazine-1-carbonyl)phenyl)benzenesulfonamide] | > 100 µM | 1.4 µM | > 100 µM | > 100 µM | – | – |
| COc1ccc(C(=O)N/N=C/c2cccc3ccccc23)cc1 [Compound 33, 4-methoxy-N′-(naphthalen-1-ylmethylene)benzohydrazide] | > 100 µM | 129 µM | > 100 µM | > 100 µM | – | – |
| O=C(N/N=C/c1ccc(O)c2ncccc12)c1cccc2ccccc12 [Compound 9, N′-((8-hydroxyquinolin-5-yl)methylene)-1-naphthohydrazide] | > 100 µM | 2.1 µM | > 100 µM | 56 µM | – | – |
| O=C(N/N=C/c1ccc(O)c2ncccc12)c1cccs1 [Compound 3, N′-((8-hydroxyquinolin-5-yl)methylene)thiophene-2-carbohydrazide] | 92 µM | 38 µM | > 100 µM | 63 µM | – | – |
| O=C(N/N=C/c1ccc(O)c2ncccc12)c1ccc(NS(=O)(=O)c2cccs2)cc1 [Compound 13, N-(4-(2-((8-hydroxyquinolin-5-yl)methylene)hydrazine-1-carbonyl)phenyl)thiophene-2-sulfonamide] | > 100 µM | 0.81 µM | > 100 µM | > 100 µM | – | – |
| CCOc1ccc(S(=O)(=O)Nc2ccc(C(=O)N/N=C/c3ccc([N+](=O)[O-])o3)cc2)cc1 [Compound 28, 4-ethoxy-N-(4-(2-((5-nitrofuran-2-yl)methylene)hydrazine-1-carbonyl)phenyl)benzenesulfonamide] | > 100 µM | 66 µM | > 100 µM | > 100 µM | – | – |
| O=C(N/N=C/c1ccc([N+](=O)[O-])o1)c1cccc2ccccc12 [Compound 22, N′-((5-nitrofuran-2-yl)methylene)-1-naphthohydrazide] | > 100 µM | 73 µM | 16 µM | 6 µM | – | – |
| O=C(N/N=C/c1ccc([N+](=O)[O-])o1)c1ccccc1Oc1ccccc1 [Compound 23, N′-((5-nitrofuran-2-yl)methylene)-2-phenoxybenzohydrazide] | > 100 µM | – | 11 µM | 5.2 µM | – | – |
| COc1ccc(C(=O)N/N=C/c2ccc(O)c3ncccc23)cc1 [Compound 1, N′-((8-hydroxyquinolin-5-yl)methylene)-4-methoxybenzohydrazide] | 100 µM | – | > 100 µM | – | – | 87 µM |
